In patent publication US20230113037A1 (Bayer Aktiengesellschaft, priority 2019, published 2023) one finds IC50 data, which are given here for twelve molecules.

The structures appear in SMILES notation. Like-named read-outs stand apart in the source and are kept apart here.

The target in assay [1] is T1, AHR (Homo sapiens, UniProt P35869).
T1 construct: U87 MG glioblastoma cells (ATCC #HTB-14) endogenously expressing AHR; endogenous in cells; host or cells: U87 MG glioblastoma cells (ATCC #HTB-14)
T1 sequence (P35869 11-848): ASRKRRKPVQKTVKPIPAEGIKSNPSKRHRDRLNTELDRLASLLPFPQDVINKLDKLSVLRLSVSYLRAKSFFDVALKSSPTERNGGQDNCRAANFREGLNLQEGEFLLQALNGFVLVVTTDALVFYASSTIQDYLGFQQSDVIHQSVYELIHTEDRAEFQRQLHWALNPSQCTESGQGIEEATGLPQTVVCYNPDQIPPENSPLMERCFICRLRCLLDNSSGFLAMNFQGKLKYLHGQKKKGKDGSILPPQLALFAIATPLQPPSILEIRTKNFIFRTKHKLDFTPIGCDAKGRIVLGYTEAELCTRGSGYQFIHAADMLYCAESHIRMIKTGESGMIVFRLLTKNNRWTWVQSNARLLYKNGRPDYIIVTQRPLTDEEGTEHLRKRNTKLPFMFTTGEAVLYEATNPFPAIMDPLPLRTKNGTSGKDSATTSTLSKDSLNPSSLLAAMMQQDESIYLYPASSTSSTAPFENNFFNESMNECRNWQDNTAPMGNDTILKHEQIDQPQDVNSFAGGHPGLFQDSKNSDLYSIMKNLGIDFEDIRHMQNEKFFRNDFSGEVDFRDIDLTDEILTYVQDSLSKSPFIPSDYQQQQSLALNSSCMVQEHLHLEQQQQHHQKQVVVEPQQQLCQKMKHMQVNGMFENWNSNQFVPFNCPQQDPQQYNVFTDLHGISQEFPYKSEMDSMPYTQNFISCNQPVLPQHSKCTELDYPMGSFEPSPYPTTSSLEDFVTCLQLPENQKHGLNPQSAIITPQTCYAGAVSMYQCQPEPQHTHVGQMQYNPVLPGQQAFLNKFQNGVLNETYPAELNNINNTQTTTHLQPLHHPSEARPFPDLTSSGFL
The assay is described as follows: In vitro assay 1: antagonism in human cell line (AHR transactivation, firefly luciferase reporter, kynurenic acid prestimulated). The format is cell-based. Conditions: AHR Antagonism Human IC50 [M]. Put shortly:
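Antagonism is measured against kynurenic acid prestimulation in U87 MG glioblastoma cells carrying stable DRE-luciferase and Renilla reporters. Positive inhibition control: 150 μM kynurenic acid with 5 μM staurosporine. Values are normalized to controls; repeats are averaged or given as medians.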

Assay [2] addresses T2, AHR (Mus musculus, UniProt P30561).
T2 sequence (P30561 1-848 P471L/N533S/M589L): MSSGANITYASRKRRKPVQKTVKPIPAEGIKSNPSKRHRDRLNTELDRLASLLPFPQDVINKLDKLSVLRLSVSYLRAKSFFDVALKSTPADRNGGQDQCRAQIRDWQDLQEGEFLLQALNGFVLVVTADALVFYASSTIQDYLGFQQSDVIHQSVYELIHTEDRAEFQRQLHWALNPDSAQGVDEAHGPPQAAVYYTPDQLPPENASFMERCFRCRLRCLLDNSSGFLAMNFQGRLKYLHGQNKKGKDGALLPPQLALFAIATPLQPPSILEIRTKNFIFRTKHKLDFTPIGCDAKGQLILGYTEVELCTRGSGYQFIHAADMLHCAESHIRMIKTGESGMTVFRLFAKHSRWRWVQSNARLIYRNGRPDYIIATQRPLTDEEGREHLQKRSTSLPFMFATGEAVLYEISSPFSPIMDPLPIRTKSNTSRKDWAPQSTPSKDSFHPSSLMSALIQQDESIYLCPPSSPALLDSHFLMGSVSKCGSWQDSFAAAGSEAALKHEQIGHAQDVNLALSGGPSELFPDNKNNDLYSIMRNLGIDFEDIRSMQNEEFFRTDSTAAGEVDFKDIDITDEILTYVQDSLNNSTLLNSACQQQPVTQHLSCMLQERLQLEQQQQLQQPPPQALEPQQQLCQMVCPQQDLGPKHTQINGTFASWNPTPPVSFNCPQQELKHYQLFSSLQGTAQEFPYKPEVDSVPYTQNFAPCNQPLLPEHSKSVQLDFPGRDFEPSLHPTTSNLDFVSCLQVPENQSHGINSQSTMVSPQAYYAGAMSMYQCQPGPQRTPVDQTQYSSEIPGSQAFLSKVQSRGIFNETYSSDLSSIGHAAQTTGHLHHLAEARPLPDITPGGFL
The assay is described as follows: In vitro assay 3: antagonism in mouse cell line (AHR transactivation, firefly luciferase reporter, kynurenic acid prestimulated). The format is cell-based. Put shortly:
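Kynurenic acid-prestimulated mouse reporter cells; stable AHR-inducible firefly luc construct with DRE sites in promoter. No-agonist wells = positive inhibition ctrl. Luminescence normalized to pos/neg ctrls; n>1 reported as mean or median.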
For orientation: Reporter assays use an easily measured gene product as a stand-in for the process of interest.

Where [3] appears, read: mouse Hepa 1c1c7 cells, 200 μM kynurenic acid, 20 hours, read-out: AHR Antagonism Mouse IC50.
The mark [4] stands for this setting: Hepa 1c1c7 cells, 200 μM kynurenic acid, 20 hours, firefly luciferase reporter, read-out: AHR Antagonism Mouse IC50.

Usually IC50 stands for the point on the concentration scale where inhibition reaches its midpoint. In the case of `COc1cccc(-c2nc3c4ccccc4nc(NC4CCCNC4=O)n3n2)c1` (single isomer, unassigned) [Example 119, 3-{[2-(3-methoxyphenyl)[1,2,4]triazolo[1,5-c]quinazolin-5-yl]amino}piperidin-2-one], the IC50 was 7.8e-07 M on AHR [1] and 202 nM at AHR [2] (setting [3]).

Regarding `CNCCNC(=O)[C@@H](C)Nc1nc2ccccc2c2nc(-c3ccc(OC)cc3)nn12` [Example 990, N^2-[2-(4-methoxyphenyl)[1,2,4]triazolo[1,5-c]quinazolin-5-yl]-N-[2-(methylamino)ethyl]-D-alaninamide-hydroxy chloride (1/1)], the IC50 was 4.29e-08 M against AHR [1] (firefly luciferase reporter) and 73.6 nM at AHR [2] (setting [4]).

With `COCCNC(=O)[C@@H](C)Nc1nc2c(Br)cccc2c2nc(-c3ccc(OC)cc3)nn12` [Example 885, N^2-[7-bromo-2-(4-methoxyphenyl)[1,2,4]triazolo[1,5-c]quinazolin-5-yl]-N-(2-methoxyethyl)-D-alaninamide], the IC50 is 1.24e-09 M against AHR [1] (firefly luciferase reporter) and 2.94 nM on AHR [2] (setting [4]).

On to `COc1ccc(-c2nc3c4cccc(Br)c4nc(N[C@@H]4CCNC4=O)n3n2)cc1` [Example 218, (3R)-3-{[7-bromo-2-(4-methoxyphenyl)[1,2,4]triazolo[1,5-c]quinazolin-5-yl]amino}pyrrolidin-2-one], for which the IC50 on AHR [1] is 8.68e-09 M; on AHR [2] (setting [3]), 29.4 nM.

In the case of `CCn1cc(-c2nc3c4cccc(C(F)(F)F)c4nc(N[C@@H]4CCCCNC4=O)n3n2)c(C)n1` [Example 674, (3R)-3-{[2-(1-ethyl-3-methyl-1H-pyrazol-4-yl)-7-(trifluoromethyl)[1,2,4]triazolo[1,5-c]quinazolin-5-yl]amino}azepan-2-one], the IC50 on AHR [1] worked out at 3.44e-10 M; on AHR [2] (setting [3]), 0.669 nM.

With `COc1cccc(-c2nc3c4ccccc4nc(N[C@@H](Cc4ccc(O)cc4)C(N)=O)n3n2)c1` [Example 84, N^2-[2-(3-methoxyphenyl)[1,2,4]triazolo[1,5-c]quinazolin-5-yl]-L-tyrosinamide], the IC50 against AHR [1] worked out at 1.01e-06 M; at AHR [2] (setting [3]), 1380 nM.

As for `O=C1NCCCC[C@H]1Nc1nc2ccccc2c2nc(-c3nc(CCO)no3)nn12` [Example 305, (3R)-3-({2-[3-(2-Hydroxyethyl)-1,2,4-oxadiazol-5-yl][1,2,4]triazolo[1,5-c]quinazolin-5-yl}amino)azepan-2-one], the IC50 on AHR [1] was 2.97e-07 M; on AHR [2] (read-out: AHR Antagonism Mouse IC50, mouse Hepa 1c1c7 cells, 200 μM kynurenic acid, 20 hours) it was 178 nM.

For the molecule `COc1ccc(-c2nc3c4ccc(C)cc4nc(N[C@@H]4CCCCNC4=O)n3n2)cc1` [Example 228, (3R)-3-{[2-(4-methoxyphenyl)-8-methyl[1,2,4]triazolo[1,5-c]quinazolin-5-yl]amino}azepan-2-one], the IC50 amounted to 3.01e-08 M against AHR [1] and 38.9 nM at AHR [2] (setting [3]).

For `CC(C)n1cc(-c2nc3c4cccc(OC(F)(F)F)c4nc(N[C@@H]4CCCCNC4=O)n3n2)cn1` [Example 759, (3R)-3-({2-[1-(propan-2-yl)-1H-pyrazol-4-yl]-7-(trifluoromethoxy)[1,2,4]triazolo[1,5-c]quinazolin-5-yl}amino)azepan-2-one], the IC50 turned out to be 7.68e-09 M against AHR [1] and 25 nM at AHR [2] (setting [3]).

For `Cc1sccc1-c1nc2c3ccccc3nc(N[C@H]3CCCCNC3=O)n2n1` [Example 347], the IC50 at AHR [1] was 1.17e-07 M; at AHR [2] (setting [3]) it was 4.28 nM.

Turning to `CCCNC(=O)[C@@H](C)Nc1nc2c(Br)cccc2c2nc(-c3ccc(Cl)cc3OC(F)(F)F)nn12` [Example 693, N^2-{7-bromo-2-[4-chloro-2-(trifluoromethoxy)phenyl][1,2,4]triazolo[1,5-c]quinazolin-5-yl}-N-propyl-D-alaninamide], the results for the IC50 against AHR [1] and on AHR [2] (setting [3]) were 7.43e-09 M and 2.52 nM, respectively.

As to `CC[C@@H](Nc1nc2ccccc2c2nc(-c3cccc(OC(F)(F)F)c3)nn12)C(N)=O` [Example 314, (2R)-2-({2-[3-(trifluoromethoxy)phenyl][1,2,4]triazolo[1,5-c]quinazolin-5-yl}amino)butanamide], the IC50 stood at 6.9e-09 M on AHR [1] and 0.922 nM on AHR [2] (setting [3]).
